{
  "source": "patent US6596500B1",
  "about": "“Binding of retinoids to M6P/IGF-II receptor” (The General Hospital Corporation, priority 1998, dated 2003)",
  "key": {"HL-60R cells": {"system": "HL-60R cells", "assay": "Growth and apoptosis of HL-60R cells overexpressing M6P/IGF2R", "format": "cell-based, human", "conditions": "1 μM RA; HL-60R cells transfected with M6P/IGF2R cDNA", "method": "FIG. 9 is a graph showing the effect of RA treatment on growth (number of viable cells) of HL-60R cells overexpressing M6P/IGF2R protein and HL-60R controls. Open circles, vector control cells without RA treatment; closed circles, vector control cells with 1 μM RA treatment; open squares, overexpressing cells without RA treatment; closed squares overexpressing cells with 1 μM RA treatment.\nWe examined the M6P/IGF2R-mediated effects of RA in the absence of nuclear RA receptors, by using human cell line HL-60R, which lacks functional nuclear RA receptors. This cell line expresses low levels of M6P/IGF2R protein. We transfected HL-60R cells with a plasmid encoding human M6P/IGF2R, so they overexpressed M6P/IGF2R. Then we assessed their response to RA. […] Apoptosis was assayed using FITC-labeled annexin V staining and flow cytometry."}, "[1]": {"target": "T1, M6P/IGF2R (300 kDa protein) (Rattus norvegicus, UniProt G3V824)", "T1 construct": "about 100 μg of proteins of membrane preparations or serum; from tissue; host or cells: membrane preparations of cultured neonatal Sprague-Dawley rat cardiac myocytes", "T1 sequence (G3V824 36-2481)": "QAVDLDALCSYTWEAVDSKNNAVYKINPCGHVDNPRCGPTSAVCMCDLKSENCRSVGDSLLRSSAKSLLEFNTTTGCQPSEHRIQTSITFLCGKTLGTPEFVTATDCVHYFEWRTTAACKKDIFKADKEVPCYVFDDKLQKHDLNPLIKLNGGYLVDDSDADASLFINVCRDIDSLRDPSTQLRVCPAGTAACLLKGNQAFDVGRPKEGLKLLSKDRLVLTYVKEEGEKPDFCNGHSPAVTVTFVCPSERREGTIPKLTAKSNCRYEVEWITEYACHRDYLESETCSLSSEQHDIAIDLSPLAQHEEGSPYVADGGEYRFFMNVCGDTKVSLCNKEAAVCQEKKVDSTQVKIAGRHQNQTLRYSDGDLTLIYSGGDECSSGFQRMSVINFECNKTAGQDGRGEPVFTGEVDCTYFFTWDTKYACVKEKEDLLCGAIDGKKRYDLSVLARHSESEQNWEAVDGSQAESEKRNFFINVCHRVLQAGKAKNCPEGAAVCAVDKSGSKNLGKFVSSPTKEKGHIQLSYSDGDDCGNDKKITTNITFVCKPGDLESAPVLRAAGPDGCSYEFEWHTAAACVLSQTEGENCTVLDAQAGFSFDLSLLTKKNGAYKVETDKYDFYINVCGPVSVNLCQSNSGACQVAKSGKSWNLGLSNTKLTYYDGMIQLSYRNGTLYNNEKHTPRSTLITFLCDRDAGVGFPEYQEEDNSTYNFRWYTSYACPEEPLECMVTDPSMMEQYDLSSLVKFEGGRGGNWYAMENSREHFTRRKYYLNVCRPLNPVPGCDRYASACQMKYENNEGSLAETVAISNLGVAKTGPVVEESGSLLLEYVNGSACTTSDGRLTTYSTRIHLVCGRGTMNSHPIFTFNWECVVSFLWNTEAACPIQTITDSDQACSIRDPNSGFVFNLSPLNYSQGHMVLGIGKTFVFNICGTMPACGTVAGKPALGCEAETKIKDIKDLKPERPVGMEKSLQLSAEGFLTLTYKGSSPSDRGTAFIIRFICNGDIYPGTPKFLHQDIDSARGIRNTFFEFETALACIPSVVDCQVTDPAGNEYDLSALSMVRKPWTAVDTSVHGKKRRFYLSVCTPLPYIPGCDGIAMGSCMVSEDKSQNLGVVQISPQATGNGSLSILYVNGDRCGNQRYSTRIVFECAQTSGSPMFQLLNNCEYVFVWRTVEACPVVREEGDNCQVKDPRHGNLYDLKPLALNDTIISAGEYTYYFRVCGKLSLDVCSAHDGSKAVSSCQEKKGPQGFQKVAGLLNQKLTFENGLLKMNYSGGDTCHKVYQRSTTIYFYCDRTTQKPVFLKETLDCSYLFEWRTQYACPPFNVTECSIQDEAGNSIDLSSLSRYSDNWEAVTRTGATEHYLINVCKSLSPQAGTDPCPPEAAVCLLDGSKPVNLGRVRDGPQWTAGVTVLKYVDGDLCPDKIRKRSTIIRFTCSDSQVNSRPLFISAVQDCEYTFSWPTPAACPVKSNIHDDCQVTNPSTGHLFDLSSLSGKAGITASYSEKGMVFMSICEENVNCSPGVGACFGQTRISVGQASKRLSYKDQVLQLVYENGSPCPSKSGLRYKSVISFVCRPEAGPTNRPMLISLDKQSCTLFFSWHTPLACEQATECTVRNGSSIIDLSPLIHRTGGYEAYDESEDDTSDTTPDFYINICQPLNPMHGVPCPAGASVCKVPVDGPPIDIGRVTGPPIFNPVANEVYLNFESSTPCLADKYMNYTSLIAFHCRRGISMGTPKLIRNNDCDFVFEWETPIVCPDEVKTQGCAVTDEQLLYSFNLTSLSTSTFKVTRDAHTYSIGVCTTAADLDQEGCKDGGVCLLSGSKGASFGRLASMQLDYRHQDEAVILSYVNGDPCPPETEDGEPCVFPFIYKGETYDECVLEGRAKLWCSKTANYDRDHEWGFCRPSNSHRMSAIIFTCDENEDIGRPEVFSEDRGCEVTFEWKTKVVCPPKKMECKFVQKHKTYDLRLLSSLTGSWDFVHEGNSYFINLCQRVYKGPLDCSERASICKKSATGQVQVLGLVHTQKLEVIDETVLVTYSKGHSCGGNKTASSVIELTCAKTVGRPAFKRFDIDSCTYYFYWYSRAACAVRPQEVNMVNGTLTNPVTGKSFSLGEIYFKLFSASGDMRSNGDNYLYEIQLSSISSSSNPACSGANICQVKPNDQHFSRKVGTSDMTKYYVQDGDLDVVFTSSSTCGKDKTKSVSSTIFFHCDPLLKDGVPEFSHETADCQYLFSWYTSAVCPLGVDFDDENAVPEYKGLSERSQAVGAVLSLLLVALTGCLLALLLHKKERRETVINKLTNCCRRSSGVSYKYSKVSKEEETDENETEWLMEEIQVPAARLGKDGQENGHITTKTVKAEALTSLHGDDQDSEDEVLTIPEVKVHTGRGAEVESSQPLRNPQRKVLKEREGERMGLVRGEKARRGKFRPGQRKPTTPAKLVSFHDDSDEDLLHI", "assay": "[3H]RA photoaffinity labeling of the 300 kDa protein", "format": "binding", "conditions": "for Inhibition of [3H]RA photolabeling/binding to M6P/IGF2R by nonradioactive competitor: 25- to 50-fold molar excess (50 μM) competitor added before photolysis", "method": "Photoaffinity Labeling Photoaffinity labeling was performed essentially according to the methods described in Bernstein et al., 1995, Proc. Natl. Acad. Sci. USA 92:654-658. […] After the ethanol has been evaporated with nitrogen, about 100 μg of proteins of membrane preparations or serum [serum proteins were first concentrated using a Biomax-100K Centrifugal Filter Device (Millipore)] were then added to each tube. The final volume was adjusted to 100 μl with 50 mM Tris buffer (pH 7.4) containing protease inhibitors (5 mM EDTA, 5 mM EGTA, 0.1 mM phenylmethylsulfonyl fluoride, 0.05% NaN3, 20 μg/ml aprotinin, 10 μg/ml benzamidine and 12.5 μg/ml chymostatin) and 50 μM butylated hydroxytoluene (a radical scavenger, used to minimize the non-specific labeling) for a final concentration of 1 μM labeled retinoic acid. The samples were incubated at room temperature with agitation for 1 hour in the dark. The samples were exposed to an intense 365-nm UV light source (Model B 100AP, UPland, CA) for 7 min. […] To remove the non-covalently bound ligands, the photolabeled samples were extracted with chloroform/methanol (2:1), or washed once by centrifugation for membrane samples only).\nFluorography The resultant protein pellets were dissolved in SDS sample buffer containing 5% β-mercapto-ethanol and heated at 100° C. for 5 min. These samples were then run on 7% polyacrylamide gels (30:0.2, acrylamide/bisacrylamide ratio), using conventional SDS/PAGE techniques. After electrophoresis, the gels were stained with Coomassie blue, soaked in Amplifier (Amersham, Life Science) for 30 minutes, dried by a vacuum gel dryer and then exposed to Hyperfilm-TM X-ray films (Amersham, Life Science) at […] for 1-3 days."}, "P388D1 cells": {"system": "P388D1 cells", "assay": "RA effects on endocytosis, IGF-II internalization and acid phosphatase in receptor-negative cells", "format": "cell-based, mouse", "description": "The primary functions of the Man-6-P/IGF-II receptor are to mediate endocytosis of extracellular M6P-containing proteins (e.g. lysosomal enzymes) and IGF-II and to sort newly synthesized lysosomal enzymes. Therefore, an important question raised by the direct interaction of RA with M6P/IGF2R is whether RA influences these functions of the receptor. To answer this question, we examined the effect of RA on endocytosis of exogenous β-glucuronidase and ^125I-IGF-II and intracellular activity of acid phosphatase in cultured neonatal rat cardiac myocytes, which were known to express high levels of the M6P/IGF-II receptor (Nissley et al., 1993, Mol. Reprod. Dev. 35:408-413). […] This indicated an increased sorting of lysosomal enzymes) (FIGS. 4-6). […] These effects of RA were not altered in the presence of a protein synthesis inhibitor (0.5 mM cycloheximide) and were not observed in the receptor-negative P388D1 cells. This indicated a direct interaction of RA with the M6P/IGF2R protein."}, "M6P/IGF2R": {"target": "M6P/IGF2R (Rattus norvegicus, UniProt G3V824)", "sequence (G3V824 36-2481)": "as above", "assay": "β-glucuronidase binding to saponin-permeabilized cardiac myocytes", "format": "cell-based", "set-up": "endogenous in cells; host or cells: primary neonatal rat cardiac fibroblasts", "conditions": "RA 1 μM; saponin-permeabilized neonatal rat cardiac myocytes", "method": "FIG. 3 is a histogram summarizing data on the effect of RA (1 μM) on β-glucuronidase binding to permeabilized neonatal rat cardiac myocytes (n=3).\nTo determine how these ligands interact in binding to the same receptor, we examined the effects of M6P and IGF-II on the [^3H]RA-affinity photolabeling of the M6P/IGF-II receptor. […] The [^3H]RA labeling of M6P/IGF-II receptor was 2-fold greater in the presence of 5 mM M6P than in the absence of M6P, as measured by NIH Image, n=3. Similar results were obtained by measurement of the binding of [^3H]RA to the partially purified receptors (FIG. 2). The increased binding of RA to the receptor in the presence of M6P appeared to be the result of increased binding affinity. […]\nβ-glucuronidase Binding and Endocytosis For binding assays, cells were permeabilized with saponin, incubated with β-glucuronidase (20,000 units/ml) with or without 1 μM RA for 3 h on ice, washed, solubilized and assayed for β-glucuronidase essentially as described by Miniti et al., 1992, J. Biol. Chem. 267:9000-9004. Specific enzyme binding was calculated by subtracting nonspecific binding (in the presence of 10 mM M6P) from total binding."}, "M6P/IGF-II receptor": {"target": "T2, M6P/IGF-II receptor (Rattus norvegicus, UniProt G3V824)", "T2 construct": "cultured neonatal rat cardiac myocytes, which were known to express high levels of the M6P/IGF-II receptor; endogenous in cells; host or cells: primary neonatal rat cardiac myocytes", "T2 sequence (G3V824 36-2481)": "as above", "assay": "Internalization of 125I-IGF-II in cultured cardiac myocytes", "format": "cell-based", "conditions": "RA 2 μM; 2 h", "method": "FIG. 5 is a histogram summarizing data on the effect of RA on the internalization of ^125I-IGF-II. Assay was performed by incubating cells at […] for 2 h in media (150 mM NaCl, 5 mM KCl, 1.2 mM MgSO4, 8 mM glucose, 100 mM Hepes, pH 7.6) or F-10 culture medium containing ^125I-IGF-II (0.5 ng/ml) with or without excess unlabeled IGF-II (2 μg/ml), in the presence or absence of 2 μM RA. Following the incubation, the cells were washed three times with ice-cold PBS, and cell-associated radioactivity was determined by a gamma counter.\nThe primary functions of the Man-6-P/IGF-II receptor are to mediate endocytosis of extracellular M6P-containing proteins (e.g. lysosomal enzymes) and IGF-II and to sort newly synthesized lysosomal enzymes. Therefore, an important question raised by the direct interaction of RA with M6P/IGF2R is whether RA influences these functions of the receptor. To answer this question, we examined the effect of RA on endocytosis of exogenous β-glucuronidase and ^125I-IGF-II and intracellular activity of acid phosphatase in cultured neonatal rat cardiac myocytes, which were known to express high levels of the M6P/IGF-II receptor (Nissley et al., 1993, Mol. Reprod. Dev. 35:408-413). […] This indicated an increased sorting of lysosomal enzymes) (FIGS. 4-6). […]"}},
  "note": "“Also recorded” adds a separate entry of the source.",
  "data": [
    {"smiles": "CC1=C(/C=C/C(C)=C/C=C/C(C)=C/C(=O)O)C(C)(C)CCC1", "note": "[RA, all-trans-retinoic acid]", "values": [
      {"measurement": "Apoptosis (FITC-annexin V staining, flow cytometry)", "setting": "HL-60R cells", "result": "significant increase in apoptosis"},
      {"measurement": "Growth rate", "setting": "HL-60R cells", "result": "remarkable reduction in growth rate"},
      {"measurement": "Inhibition of [3H]RA photolabeling/binding to M6P/IGF2R by nonradioactive competitor", "setting": "[1]", "result": "the radiolabel at the 300 kDa protein was lost; also recorded: inhibited the binding"},
      {"measurement": "Inhibition of [3H]RA photolabeling/binding to M6P/IGF2R by nonradioactive competitor", "setting": "[1]; listed as all-trans-retinoic acid", "result": "abolished the labeling"},
      {"measurement": "Photoaffinity labeling of protein by [3H]RA", "setting": "[1]; incubation with [3H]RA followed by photolysis", "result": "labeling of a doublet protein at 300 kDa; also recorded: intensively photolabeled"},
      {"measurement": "Effects of RA on endocytosis, IGF-II internalization and acid phosphatase in receptor-negative cells", "setting": "P388D1 cells", "result": "not observed"},
      {"measurement": "M6P-inhibitable binding of β-glucuronidase to cells, presence vs absence of RA", "setting": "M6P/IGF2R", "result": "2-3 times"},
      {"measurement": "Increase of internalization of IGF-II", "setting": "M6P/IGF-II receptor", "result": "30-50%"}
    ]}
  ]
}
